What was measured:
Assay type in all cases: toxicity, cell-based
U2OS = experiment: Incucyte cell viability with U2OS; details: human, 10 µM, compound concentration 10 uM
HEK-293T = experiment: Incucyte cell viability with HEK293T; details: human, 10 µM, compound concentration 10 uM
Fibroblast = experiment: Incucyte cell viability with human fibroblast; details: 10 µM, compound concentration 10 uM
[1] = 0 h, replicate number 1, timepoint 0 hours
[2] = 6 h, replicate number 1, timepoint 6 hours
[3] = 12 h, replicate number 1, timepoint 12 hours
[4] = 12 h, replicate number 2, timepoint 12 hours
[5] = 18 h, replicate number 1, timepoint 18 hours
[6] = 18 h, replicate number 2, timepoint 18 hours
[7] = 24 h, replicate number 1, timepoint 24 hours
[8] = 24 h, replicate number 2, timepoint 24 hours
Further: filed as whole numbers so only -1 and 0 and 1 occur.

C[C@@H](N)Cc1c[nH]cn1.Cl.Cl
Growth Rate (U2OS; [1]): 1 | Growth Rate (U2OS; [2]): 0 | Growth Rate (U2OS; [3]): 0 | Growth Rate (U2OS; [4]): 1 | Growth Rate (U2OS; [5]): 0 | Growth Rate (U2OS; [6]): 1 | Growth Rate (U2OS; [7]): 0 | Growth Rate (U2OS; [8]): 1 | Growth Rate (HEK-293T; [1]): 0 | Growth Rate (HEK-293T; [2]): 1 | Growth Rate (HEK-293T; 6 h, replicate number 2, timepoint 6 hours): 0 | Growth Rate (HEK-293T; [3]): 1 | Growth Rate (HEK-293T; [4]): 0 | Growth Rate (HEK-293T; [5]): 1 | Growth Rate (HEK-293T; [6]): 0 | Growth Rate (HEK-293T; [7]): 1 | Growth Rate (HEK-293T; [8]): 0 | Growth Rate (Fibroblast; [1]): 1 | Growth Rate (Fibroblast; 0 h, replicate number 2, timepoint 0 hours): 0 | Growth Rate (Fibroblast; [2]): 0 | Growth Rate (Fibroblast; [3]): 0 | Growth Rate (Fibroblast; [5]): 0 | Growth Rate (Fibroblast; [7]): 0 | Growth Rate (Fibroblast; [8]): 1

Source: ChEMBL document CHEMBL4689842, “EUbOPEN Chemogenomics Library wave 1” (2021)
